The values below are quoted from earlier work in patent publication CN102406622A, “一种托伐普坦的固体制剂” (Zhejiang Huahai Pharmaceutical Co Ltd, priority 2011, dated 2012).

For this series the following is noted: low solubility, low permeability.

For the compound `Cc1ccccc1C(=O)Nc1ccc(C(=O)N2CCC[C@@H](O)c3cc(Cl)ccc32)c(C)c1` [托伐普坦, N-[4-[(5R)-7-氯-5-羟基-2,3,4,5-四氢-1-苯并氮杂卓-1-甲酰基]-3-甲基苯基]-2-甲基苯甲酰胺], the BCS class entry was “IV类药”.
